Experimental data: ChEMBL document CHEMBL1201862, “PubChem BioAssay data set” (2004)
“And” between values parts separate entries of the source, which are not always exact repeats. Equal entries are not always repeated. One block for each compound: values may come before it. The source made the active and inactive calls.

Tests used:
HeLa = assay: HeLa cell cytotoxicity, dose response, cytotoxicity control for MITF activator project, CellTiter-Glo luminescence, cherry-pick samples (AID 540259); assay type: functional, cell-based; conditions: Homo sapiens
Kallikrein-7 = Kallikrein-7 (Homo sapiens, UniProt P49862); assay: Fluorescence Intensity-based biochemical primary high throughput dose response assay to identify activators of kallikrein-7 (K7) zymogen.
CAAX prenyl protease 2 [1] = target: CAAX prenyl protease 2 (Homo sapiens, UniProt Q9Y256); assay: human Rce1 protease inhibitors, dose response, biochemical, yeast membranes, quenched-peptide fluorescence, cherry-pick (AID 588849)
CAAX prenyl protease 2 [2] = target: CAAX prenyl protease 2 (Saccharomyces cerevisiae S288c, UniProt Q03530); assay type: biochemical
Trypsin = Trypsin (Sus scrofa, UniProt P00761); assay: porcine trypsin inhibitors, dose response, selectivity assay for Rce1 protease inhibitor project, biochemical, quenched peptide fluorescence, cherry-pick (AID 488789)
[3] = (§1) Counterscreen for antagonists of the orexin 1 receptor (OX1R; HCRTR1): Fluorescence-based cell-based high throughput dose response assay to identify antagonists of the parental CHO cell line. [Related pubchem assays (depositor defined):AID434989, AID435008, AID463079, AID485270, AID492963, AID492964, AID492965, AID493232, AID504699, AID504701]; assay type: functional
Orexin receptor type 2 [4] = target: T1, Orexin receptor type 2 (Homo sapiens, UniProt O43614); assay: Counterscreen assay for antagonists of the orexin 1 receptor (OX1R; HCRTR1): Homogeneous Time Resolved Fluorescence (HTRF)-based cell-based dose response assay for antagonists of the orexin 2 receptor (OX2R; HCRTR2), run by assay provider.; assay type: functional
[5] = target: Peroxisome proliferator-activated receptor gamma/Nuclear receptor corepressor 2 (Homo sapiens, UniProt P37231+Q9Y618); assay: Counterscreen for NR2E3 inverse agonists: TR-FRET-based biochemical high throughput dose response assay to identify inverse agonists of the interaction between peroxisome proliferator-activated receptor gamma (PPARg) and nuclear receptor co-repressor 2 (NCOR2).; assay type: functional
[6] = target: T2, Orexin/Hypocretin receptor type 1 (Homo sapiens, UniProt O43613); assay: Homogeneous Time Resolved Fluorescence (HTRF)-based cell-based high throughput dose response assay for antagonists of the orexin 1 receptor (OX1R; HCRTR1). [Related pubchem assays (depositor defined):AID434989, AID435008, AID463079, AID485270, AID492963, AID492964, AID492965, AID493232, AID504717, AID504718]; assay type: functional
[7] = target: Photoreceptor-specific nuclear receptor (Homo sapiens, UniProt Q9Y5X4); assay: NR2E3 inverse agonists, dose response, biochemical, TR-FRET (AID 463256); assay type: functional
CHO-K1 = assay: as §1, with “Homogeneous time resolved fluorescence (HTRF)-based” for “Fluorescence-based”, “cell-based” for “cell-based high throughput”, “CHO-K1” for “CHO”; assay type: functional; conditions: Cricetulus griseus;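 further: potency for inhibition of ATP-stimulated IP1 production as antagonists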
Orexin receptor type 2 [8] = target: T1, Orexin receptor type 2; assay: Counterscreen assay for antagonists of the orexin 1 receptor (OX1R; HCRTR1): Fluorescence-based cell-based dose response assay for antagonists of the orexin 2 receptor (OX2R; HCRTR2), run by assay provider.; assay type: functional
[9] = target: T2, Orexin/Hypocretin receptor type 1; assay: Fluorescence-based cell-based high throughput dose response assay for antagonists of the orexin 1 receptor (OX1R; HCRTR1). [Related pubchem assays (depositor defined):AID434989, AID435008, AID463079, AID485270, AID492963, AID492964, AID492965, AID493232, AID504717, AID504718]; assay type: functional
[10] = target: T3, Beta-2 adrenergic receptor (Homo sapiens, UniProt P07550); assay: Dose response for HTS for Beta-2AR agonists via FAP method from Powderset1.; assay type: functional
[11] = target: T3, Beta-2 adrenergic receptor; assay: beta2AR agonists driving receptor internalization, dose response, cell-based, FAP fluorogen, flow cytometry, cherry pick 1 (AID 588763); assay type: functional
[12] = target: Latent membrane protein 1 (Human herpesvirus 4 (strain B95-8), UniProt P03230); assay: TES1-eGFP NF-kB reporter inhibition versus Tet-On dsRED, dose response, selectivity assay for LMP1 NF-kB inhibitor project, imaging, HEK293T, dual-color eGFP/dsRED, cherry-picks (AID 588398); assay type: functional, cell-based

T3 sequence (P07550 whole entry): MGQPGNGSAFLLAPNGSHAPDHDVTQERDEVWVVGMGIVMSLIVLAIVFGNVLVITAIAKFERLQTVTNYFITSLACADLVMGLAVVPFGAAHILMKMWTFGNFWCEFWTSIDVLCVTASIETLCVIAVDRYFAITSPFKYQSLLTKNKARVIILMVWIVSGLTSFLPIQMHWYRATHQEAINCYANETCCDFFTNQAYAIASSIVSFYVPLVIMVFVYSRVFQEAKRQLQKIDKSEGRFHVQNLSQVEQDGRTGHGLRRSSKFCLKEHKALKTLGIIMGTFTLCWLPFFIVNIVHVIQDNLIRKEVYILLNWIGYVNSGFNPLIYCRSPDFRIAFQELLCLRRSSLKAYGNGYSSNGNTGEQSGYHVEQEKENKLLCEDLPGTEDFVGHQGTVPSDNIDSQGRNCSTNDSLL
T2 sequence (O43613 whole entry): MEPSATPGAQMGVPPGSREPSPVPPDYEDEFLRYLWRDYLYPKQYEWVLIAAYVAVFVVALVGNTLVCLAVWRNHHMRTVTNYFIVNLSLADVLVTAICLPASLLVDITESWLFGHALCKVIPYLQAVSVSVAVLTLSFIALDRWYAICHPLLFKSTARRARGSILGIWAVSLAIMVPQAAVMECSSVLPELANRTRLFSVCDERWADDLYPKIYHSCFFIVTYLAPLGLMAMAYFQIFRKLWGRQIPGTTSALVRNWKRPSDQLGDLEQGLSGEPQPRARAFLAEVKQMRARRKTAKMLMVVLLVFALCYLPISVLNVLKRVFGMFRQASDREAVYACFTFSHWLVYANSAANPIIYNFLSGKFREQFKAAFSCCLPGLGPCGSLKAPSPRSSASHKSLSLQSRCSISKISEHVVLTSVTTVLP
T1 sequence (O43614 whole entry): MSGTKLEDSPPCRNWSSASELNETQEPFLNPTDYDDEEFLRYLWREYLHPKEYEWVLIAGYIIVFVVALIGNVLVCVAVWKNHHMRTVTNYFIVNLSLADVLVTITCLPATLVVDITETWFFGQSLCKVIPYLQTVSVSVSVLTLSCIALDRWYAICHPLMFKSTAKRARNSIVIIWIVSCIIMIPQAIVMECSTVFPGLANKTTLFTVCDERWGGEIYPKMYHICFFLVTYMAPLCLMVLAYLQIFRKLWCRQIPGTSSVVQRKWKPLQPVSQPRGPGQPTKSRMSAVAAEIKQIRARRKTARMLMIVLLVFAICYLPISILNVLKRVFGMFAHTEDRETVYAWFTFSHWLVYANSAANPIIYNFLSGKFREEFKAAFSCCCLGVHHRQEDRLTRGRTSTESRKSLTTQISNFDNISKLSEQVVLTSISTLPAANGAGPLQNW
Kallikrein-7, sequence (P49862 whole entry): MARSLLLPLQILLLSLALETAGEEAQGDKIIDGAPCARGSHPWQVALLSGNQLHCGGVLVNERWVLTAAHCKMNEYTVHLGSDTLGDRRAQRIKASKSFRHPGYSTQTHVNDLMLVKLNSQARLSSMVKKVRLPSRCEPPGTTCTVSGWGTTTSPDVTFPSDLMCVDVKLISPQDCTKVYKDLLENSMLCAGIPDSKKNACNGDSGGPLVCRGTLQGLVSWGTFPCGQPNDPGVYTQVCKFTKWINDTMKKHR
Photoreceptor-specific nuclear receptor, sequence (Q9Y5X4 whole entry): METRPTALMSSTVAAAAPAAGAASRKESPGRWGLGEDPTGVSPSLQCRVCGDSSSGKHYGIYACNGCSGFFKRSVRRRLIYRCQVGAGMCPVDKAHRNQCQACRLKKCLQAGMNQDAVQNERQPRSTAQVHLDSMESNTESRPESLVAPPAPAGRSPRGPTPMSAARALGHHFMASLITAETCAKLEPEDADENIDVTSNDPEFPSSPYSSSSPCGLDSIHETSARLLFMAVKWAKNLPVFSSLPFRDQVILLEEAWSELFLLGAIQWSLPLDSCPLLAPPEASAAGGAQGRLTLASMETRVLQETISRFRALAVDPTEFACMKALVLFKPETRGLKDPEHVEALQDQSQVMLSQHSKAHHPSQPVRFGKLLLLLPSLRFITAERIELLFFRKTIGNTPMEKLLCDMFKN
Peroxisome proliferator-activated receptor gamma/Nuclear receptor corepressor 2, sequence (P37231 whole entry): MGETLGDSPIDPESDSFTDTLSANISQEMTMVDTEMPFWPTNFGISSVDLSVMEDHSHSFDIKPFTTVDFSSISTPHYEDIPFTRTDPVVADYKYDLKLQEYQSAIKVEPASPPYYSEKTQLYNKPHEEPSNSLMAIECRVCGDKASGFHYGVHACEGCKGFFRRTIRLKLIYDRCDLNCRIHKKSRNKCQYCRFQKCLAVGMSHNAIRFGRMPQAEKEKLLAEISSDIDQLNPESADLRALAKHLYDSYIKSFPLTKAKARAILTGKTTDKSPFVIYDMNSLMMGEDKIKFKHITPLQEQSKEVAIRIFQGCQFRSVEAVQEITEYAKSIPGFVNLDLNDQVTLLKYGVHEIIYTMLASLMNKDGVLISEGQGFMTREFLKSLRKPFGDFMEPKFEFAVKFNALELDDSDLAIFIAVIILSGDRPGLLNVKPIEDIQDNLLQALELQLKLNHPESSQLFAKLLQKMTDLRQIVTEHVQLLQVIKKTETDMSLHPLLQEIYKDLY
Peroxisome proliferator-activated receptor gamma/Nuclear receptor corepressor 2, sequence (Q9Y618 whole entry): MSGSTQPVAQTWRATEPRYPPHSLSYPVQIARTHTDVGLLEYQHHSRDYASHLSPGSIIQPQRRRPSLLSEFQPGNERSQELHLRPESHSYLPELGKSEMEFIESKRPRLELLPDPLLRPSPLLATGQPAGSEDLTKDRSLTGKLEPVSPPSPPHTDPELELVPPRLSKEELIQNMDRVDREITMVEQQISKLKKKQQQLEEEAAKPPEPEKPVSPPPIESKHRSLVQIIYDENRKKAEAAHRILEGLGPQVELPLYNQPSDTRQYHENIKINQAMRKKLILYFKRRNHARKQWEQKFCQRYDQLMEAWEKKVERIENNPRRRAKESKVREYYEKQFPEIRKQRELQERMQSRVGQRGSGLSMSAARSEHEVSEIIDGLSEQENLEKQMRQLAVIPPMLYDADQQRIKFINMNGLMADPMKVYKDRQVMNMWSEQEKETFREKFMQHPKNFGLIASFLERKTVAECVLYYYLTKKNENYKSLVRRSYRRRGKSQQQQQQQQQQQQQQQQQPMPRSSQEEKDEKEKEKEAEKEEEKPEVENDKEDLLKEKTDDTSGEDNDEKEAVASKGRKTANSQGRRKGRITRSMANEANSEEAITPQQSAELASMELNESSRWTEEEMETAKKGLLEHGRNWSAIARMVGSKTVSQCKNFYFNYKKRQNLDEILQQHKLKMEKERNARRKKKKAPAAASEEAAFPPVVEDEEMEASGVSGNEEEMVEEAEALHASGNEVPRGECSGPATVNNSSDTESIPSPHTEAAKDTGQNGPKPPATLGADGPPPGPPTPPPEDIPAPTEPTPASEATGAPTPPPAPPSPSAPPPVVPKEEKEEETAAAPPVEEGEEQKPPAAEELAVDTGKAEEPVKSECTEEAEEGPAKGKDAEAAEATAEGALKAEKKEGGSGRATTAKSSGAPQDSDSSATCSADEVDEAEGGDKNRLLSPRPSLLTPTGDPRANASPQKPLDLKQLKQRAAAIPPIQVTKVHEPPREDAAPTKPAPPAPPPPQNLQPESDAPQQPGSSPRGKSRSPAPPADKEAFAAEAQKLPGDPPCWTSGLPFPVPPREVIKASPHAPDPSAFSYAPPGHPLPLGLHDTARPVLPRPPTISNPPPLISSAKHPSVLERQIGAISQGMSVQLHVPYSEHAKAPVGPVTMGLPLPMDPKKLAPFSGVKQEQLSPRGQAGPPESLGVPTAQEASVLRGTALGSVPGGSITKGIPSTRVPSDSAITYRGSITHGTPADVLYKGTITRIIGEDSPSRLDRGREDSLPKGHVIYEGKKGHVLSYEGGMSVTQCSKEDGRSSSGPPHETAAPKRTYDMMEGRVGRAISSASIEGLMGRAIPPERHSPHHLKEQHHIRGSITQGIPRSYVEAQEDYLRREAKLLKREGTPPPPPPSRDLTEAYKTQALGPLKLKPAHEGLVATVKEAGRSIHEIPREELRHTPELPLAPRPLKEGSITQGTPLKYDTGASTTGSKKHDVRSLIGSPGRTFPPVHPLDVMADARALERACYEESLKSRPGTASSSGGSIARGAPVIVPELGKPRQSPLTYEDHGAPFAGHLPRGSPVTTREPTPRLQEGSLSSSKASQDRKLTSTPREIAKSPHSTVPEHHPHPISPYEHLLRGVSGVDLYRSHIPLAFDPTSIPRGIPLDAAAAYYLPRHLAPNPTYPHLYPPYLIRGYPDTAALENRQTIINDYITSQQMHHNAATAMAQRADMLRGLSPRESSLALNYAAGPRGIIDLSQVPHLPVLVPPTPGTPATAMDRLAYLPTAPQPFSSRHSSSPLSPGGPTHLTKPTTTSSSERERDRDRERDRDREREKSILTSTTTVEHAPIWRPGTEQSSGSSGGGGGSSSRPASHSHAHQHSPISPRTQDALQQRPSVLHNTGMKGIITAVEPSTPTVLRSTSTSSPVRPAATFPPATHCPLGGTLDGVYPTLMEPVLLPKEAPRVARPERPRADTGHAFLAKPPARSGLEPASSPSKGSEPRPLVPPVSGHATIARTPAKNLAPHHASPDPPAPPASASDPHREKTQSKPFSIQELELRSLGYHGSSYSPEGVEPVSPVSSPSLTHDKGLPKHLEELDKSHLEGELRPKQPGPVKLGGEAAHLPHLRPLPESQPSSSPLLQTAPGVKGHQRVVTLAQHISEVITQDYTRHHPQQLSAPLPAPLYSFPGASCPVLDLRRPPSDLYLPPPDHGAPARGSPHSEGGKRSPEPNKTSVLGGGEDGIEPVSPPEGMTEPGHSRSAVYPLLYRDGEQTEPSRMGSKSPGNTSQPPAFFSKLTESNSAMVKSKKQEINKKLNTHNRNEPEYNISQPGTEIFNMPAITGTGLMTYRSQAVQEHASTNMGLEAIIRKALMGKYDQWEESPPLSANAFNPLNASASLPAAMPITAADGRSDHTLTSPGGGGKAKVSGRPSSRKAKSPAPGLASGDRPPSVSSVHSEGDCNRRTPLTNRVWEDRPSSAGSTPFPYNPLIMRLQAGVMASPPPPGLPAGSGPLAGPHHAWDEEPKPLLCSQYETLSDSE

SMILES: COc1ccc(C(S)=Nc2ccc(C)cc2)cc1
- AC50 (HeLa): 194 µM (active)

- EC50 (Kallikrein-7): > 69.5 µM (inactive)
- AC50 (CAAX prenyl protease 2 [1]): 5.91 µM (active)
- AC50 (CAAX prenyl protease 2 [2]): 48.9 µM (active)
- AC50 (Trypsin): 5.26 µM (active)
SMILES: CCNc1nc(C)c(CN(C(C)=O)c2ccccc2)nc1C#N

SMILES: O=C(CSc1ccc(-c2cccs2)nn1)c1cccs1
- IC50 [3]: > 49.8 µM (inactive)
- IC50 (Orexin receptor type 2 [4]): > 50 µM (inactive)
- IC50 [5]: 9.5 µM (active)
- IC50 [6]: 2.28 µM (active)
- IC50 [7]: 8.97 µM (active)
- IC50 (CHO-K1): > 66.2 µM (inactive)
- IC50 (Orexin receptor type 2 [8]): > 88.8 µM (inactive)
- IC50 [9]: > 0.614 µM (active)

- EC50 [10]: 0.225 µM (active)
- EC50 [11]: 590 nM (active) and 280 nM (active)
SMILES: COC(=O)c1ccc(NC(=O)COc2ccc(S(=O)(=O)N3CCCCC3)cc2)cc1

- AC50 [12]: 87 µM (active)
SMILES: COc1ccccc1NC(=O)Cn1nnc(-c2ccccc2NS(=O)(=O)c2ccccc2)n1
